Laboratory results: patent publication US8426409B2, “Inhibitors of Bruton's tyrosine kinase” (Roche Palo Alto LLC, priority 2008, dated 2013)

Biological target: T1, Btk enzyme (His-tagged, full-length) (Homo sapiens, UniProt Q06187)
T1 construct: 5-10 nM Btk enzyme (His-tagged, full-length); His
Assay: Bruton's Tyrosine Kinase (Btk) Inhibition Assay (33P filtration capture)
Format: biochemical
Details: 100 μM ATP, 30 μM biotinylated peptide substrate, 30 min at 30° C.
Source text: The assay is a capture of radioactive ^33P phosphorylated product through filtration. The interactions of Btk, biotinylated SH2 peptide substrate (Src homology), and ATP lead to phosphorylation of the peptide substrate. Biotinylated product is bound streptavidin sepharose beads. All bound, radiolabeled products are detected by scintillation counter.
Plates assayed are 96-well polypropylene (Greiner) and 96-well 1.2 μm hydrophilic PVDF filter plates (Millipore). Concentrations reported here are final assay concentrations: 10-100 μM compounds in DMSO (Burdick and Jackson), 5-10 nM Btk enzyme (His-tagged, full-length), 30 μM peptide substrate (Biotin-Aca-AAAEEIYGEI-NH2), 100 μM ATP (Sigma), 8 mM imidazole (Sigma, pH 7.2), 8 mM glycerol-2-phosphate (Sigma), 200 μM EGTA (Roche Diagnostics), 1 mM MnCl2 (Sigma), 20 mM MgCl2 (Sigma), 0.1 mg/ml BSA (Sigma), 2 mM DTT (Sigma), 1 μCi ^33P ATP (Amersham), 20% streptavidin sepharose beads (Amersham), 50 mM EDTA (Gibco), 2 M NaCl (Gibco), 2 M NaCl w/1% phosphoric acid (Gibco), microscint-20 (Perkin Elmer).
IC50 determinations are calculated from 10 data points per compound utilizing data produced from a standard 96-well plate assay template. […] Background was counted in the absence of peptide substrate. Total activity was determined in the presence of peptide substrate. […]

T1 sequence (Q06187 whole entry): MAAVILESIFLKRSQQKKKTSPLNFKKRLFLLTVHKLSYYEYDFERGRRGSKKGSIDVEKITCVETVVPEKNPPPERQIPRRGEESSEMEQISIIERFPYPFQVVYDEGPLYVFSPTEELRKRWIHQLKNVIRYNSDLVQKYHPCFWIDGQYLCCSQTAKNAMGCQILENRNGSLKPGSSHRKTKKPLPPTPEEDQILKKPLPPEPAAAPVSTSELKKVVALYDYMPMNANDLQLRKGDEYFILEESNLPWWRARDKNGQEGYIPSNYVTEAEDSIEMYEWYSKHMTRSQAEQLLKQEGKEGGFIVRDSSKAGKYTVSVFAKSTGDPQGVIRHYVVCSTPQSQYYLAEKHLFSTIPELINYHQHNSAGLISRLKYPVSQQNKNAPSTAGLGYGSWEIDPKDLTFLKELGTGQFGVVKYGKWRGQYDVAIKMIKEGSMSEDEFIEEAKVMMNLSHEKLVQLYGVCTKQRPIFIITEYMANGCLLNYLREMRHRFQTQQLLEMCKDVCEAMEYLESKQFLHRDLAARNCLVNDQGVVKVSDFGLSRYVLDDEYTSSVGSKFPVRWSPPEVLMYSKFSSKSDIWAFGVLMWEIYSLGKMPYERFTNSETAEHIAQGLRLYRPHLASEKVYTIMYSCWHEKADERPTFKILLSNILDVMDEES

O=C(c1ccc(Nc2nc(-c3cccc(N4CCc5cc(C6CC6)ccc5C4=O)c3CO)cn3ccnc23)cc1)N1CCOCC1 [II-1, 6-Cyclopropyl-2-(2-hydroxymethyl-3-{8-[4-(morpholine-4-carbonyl)-phenylamino]-imidazo[1,2-a]pyrazin-6-yl}-phenyl)-3,4-dihydro-2H-isoquinolin-1-one]
IC50: 25 nM

O=C1c2ccc(C3CC3)cc2CCN1c1cccc(-c2cn3ccnc3c(Nc3ccc(CN4CCOCC4)cc3)n2)c1CO [II-2, 6-Cyclopropyl-2-{2-hydroxymethyl-3-[8-(4-morpholin-4-ylmethyl-phenylamino)-imidazo[1,2-a]pyrazin-6-yl]-phenyl}-3,4-dihydro-2H-isoquinolin-1-one]
IC50: 37 nM
